According to patent US20250236608A1, “EGFR INHIBITORS” (Blueprint Medicines Corporation, priority 2022, published 2025):

Assays:
EGFR L858R = EGFR L858R (Homo sapiens (Human), UniProt P00533, L858R); test: Biochemical EGFR inhibition assay, EGFR L858R; conditions: Caliper mobility shift; 1.0 mM ATP or ATP Km; read-out: Enz EGFR_L858R IC50
[1] = molecular target: pEGFR (Tyr1068) in PC-9 cells (Ex19Del) (Homo sapiens (Human), UniProt P00533, DEL746-750); test: PC-9 pEGFR AlphaLISA assay; assay type: cell-based; conditions: 4 hours incubation, p-EGFR (Tyr1068) AlphaLISA, read-out: Ext pEGFR_PC-9 Ex19Del IC50
In short: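 Cells seeded in phenol-free DMEM with 10% FBS adhered overnight at 37° C./5% CO2, then were exposed for 4 hours to a 4-fold, 10-point compound dilution series. After lysis, phospho-EGFR was read by AlphaLISA SureFire Ultra, and IC50 was fitted from percent inhibition versus log concentration.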

EGFR (d746-750) = EGFR (d746-750) (Homo sapiens (Human), UniProt P00533, DEL746-750); test: Biochemical EGFR inhibition assay, EGFR (d746-750); conditions: Caliper mobility shift; 1.0 mM ATP or ATP Km; read-out: Enz EGFR_Exon19-del746-750 IC50
Chain of EGFR (d746-750) (P00533 other isoform, or with tags, fused parts or gaps del 1-694/del 746-750 limits assumed): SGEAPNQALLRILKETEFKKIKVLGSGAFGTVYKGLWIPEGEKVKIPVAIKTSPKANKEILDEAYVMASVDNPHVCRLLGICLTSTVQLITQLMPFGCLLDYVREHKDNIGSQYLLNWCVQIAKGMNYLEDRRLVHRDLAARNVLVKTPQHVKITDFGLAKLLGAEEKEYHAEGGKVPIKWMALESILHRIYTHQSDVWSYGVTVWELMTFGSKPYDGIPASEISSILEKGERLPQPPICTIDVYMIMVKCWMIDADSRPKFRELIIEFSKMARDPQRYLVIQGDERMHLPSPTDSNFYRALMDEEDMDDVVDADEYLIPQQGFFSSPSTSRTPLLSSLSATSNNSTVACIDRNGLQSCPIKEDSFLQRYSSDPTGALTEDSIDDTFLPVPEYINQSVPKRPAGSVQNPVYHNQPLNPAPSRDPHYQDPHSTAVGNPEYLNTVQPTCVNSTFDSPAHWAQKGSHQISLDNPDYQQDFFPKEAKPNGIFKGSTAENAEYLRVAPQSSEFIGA

Chain of EGFR L858R (P00533 25-1210 L858R): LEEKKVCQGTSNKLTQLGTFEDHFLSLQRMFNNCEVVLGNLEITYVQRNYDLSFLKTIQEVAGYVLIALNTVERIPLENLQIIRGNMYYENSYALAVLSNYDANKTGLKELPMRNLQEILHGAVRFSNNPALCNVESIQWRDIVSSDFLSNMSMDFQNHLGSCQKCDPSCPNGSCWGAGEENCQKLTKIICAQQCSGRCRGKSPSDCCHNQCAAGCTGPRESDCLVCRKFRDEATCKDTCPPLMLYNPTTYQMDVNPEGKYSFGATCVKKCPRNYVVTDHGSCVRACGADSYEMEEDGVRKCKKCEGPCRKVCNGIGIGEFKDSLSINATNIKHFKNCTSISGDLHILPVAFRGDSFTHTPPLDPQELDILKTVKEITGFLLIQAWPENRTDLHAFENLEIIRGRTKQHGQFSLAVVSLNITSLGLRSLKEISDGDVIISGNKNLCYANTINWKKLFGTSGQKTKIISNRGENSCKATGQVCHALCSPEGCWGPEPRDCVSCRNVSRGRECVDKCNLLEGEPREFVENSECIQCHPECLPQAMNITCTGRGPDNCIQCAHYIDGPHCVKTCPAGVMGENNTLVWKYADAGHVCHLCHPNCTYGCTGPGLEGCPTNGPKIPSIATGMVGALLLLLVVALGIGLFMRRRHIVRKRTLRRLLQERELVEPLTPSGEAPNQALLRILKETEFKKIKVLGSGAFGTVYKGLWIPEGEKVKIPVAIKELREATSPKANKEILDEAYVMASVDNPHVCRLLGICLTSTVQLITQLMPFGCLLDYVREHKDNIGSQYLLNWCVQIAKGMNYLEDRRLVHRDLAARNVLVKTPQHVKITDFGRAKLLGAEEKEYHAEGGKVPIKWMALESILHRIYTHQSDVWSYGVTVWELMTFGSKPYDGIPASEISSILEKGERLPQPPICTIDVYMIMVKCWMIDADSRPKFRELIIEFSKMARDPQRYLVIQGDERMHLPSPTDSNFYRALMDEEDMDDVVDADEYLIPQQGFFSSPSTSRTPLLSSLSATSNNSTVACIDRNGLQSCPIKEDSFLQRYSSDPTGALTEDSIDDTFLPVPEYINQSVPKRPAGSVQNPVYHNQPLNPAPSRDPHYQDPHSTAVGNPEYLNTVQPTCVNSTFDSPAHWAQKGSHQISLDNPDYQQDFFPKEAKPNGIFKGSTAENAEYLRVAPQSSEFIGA
Chain of pEGFR (Tyr1068) in PC-9 cells (Ex19Del) (P00533 other isoform, or with tags, fused parts or gaps del 746-750): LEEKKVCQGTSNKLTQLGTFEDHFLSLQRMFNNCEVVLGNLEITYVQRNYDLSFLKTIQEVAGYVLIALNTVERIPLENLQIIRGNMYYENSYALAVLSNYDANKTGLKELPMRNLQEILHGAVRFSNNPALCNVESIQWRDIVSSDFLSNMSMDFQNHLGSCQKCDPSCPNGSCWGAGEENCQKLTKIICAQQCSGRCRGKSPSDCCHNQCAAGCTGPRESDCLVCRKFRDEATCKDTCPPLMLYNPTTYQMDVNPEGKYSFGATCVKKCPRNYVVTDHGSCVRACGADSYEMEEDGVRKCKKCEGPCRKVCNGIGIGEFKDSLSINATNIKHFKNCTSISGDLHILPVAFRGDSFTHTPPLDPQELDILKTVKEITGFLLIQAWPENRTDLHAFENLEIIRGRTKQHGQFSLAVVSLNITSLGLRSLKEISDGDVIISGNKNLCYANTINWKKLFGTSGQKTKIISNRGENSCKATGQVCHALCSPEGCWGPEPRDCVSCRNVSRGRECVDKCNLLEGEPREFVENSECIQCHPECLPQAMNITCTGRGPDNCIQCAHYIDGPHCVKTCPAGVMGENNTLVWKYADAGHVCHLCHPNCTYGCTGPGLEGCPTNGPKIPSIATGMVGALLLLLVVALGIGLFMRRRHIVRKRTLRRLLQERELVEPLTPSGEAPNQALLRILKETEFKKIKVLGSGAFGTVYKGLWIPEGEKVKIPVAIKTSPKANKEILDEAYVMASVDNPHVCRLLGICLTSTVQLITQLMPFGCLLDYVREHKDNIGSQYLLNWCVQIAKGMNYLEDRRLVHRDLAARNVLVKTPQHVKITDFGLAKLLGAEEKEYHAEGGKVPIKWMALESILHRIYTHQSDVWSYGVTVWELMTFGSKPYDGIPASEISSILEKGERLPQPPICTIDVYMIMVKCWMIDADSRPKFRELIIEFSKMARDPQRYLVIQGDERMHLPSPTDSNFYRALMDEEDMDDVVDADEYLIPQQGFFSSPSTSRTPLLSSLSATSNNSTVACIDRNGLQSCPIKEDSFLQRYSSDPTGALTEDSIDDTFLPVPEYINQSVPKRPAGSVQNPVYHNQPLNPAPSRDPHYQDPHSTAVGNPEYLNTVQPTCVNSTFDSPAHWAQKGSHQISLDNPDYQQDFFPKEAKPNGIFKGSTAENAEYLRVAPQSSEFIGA

| IC50 (EGFR L858R) | IC50 [1] | IC50 (EGFR (d746-750)) | SMILES |
| --- | --- | --- | --- |
| 1.8 nM | 1.4 nM | 0.8 nM | COc1cc2ncnc(-c3cn(C)nc3-c3ccccc3F)c2cc1NC(=O)[C@@]12COC[C@@H]1C2 (single isomer, unassigned) [Example 240, (1R,5R)—N-(4-(3-(2-fluorophenyl)-1-methyl-1H-pyrazol-4-yl)-7-methoxyquinazolin-6-yl)-3-oxabicyclo[3.1.0]hexane-1-carboxamide or (1S,5S)—N-(4-(3-(2-fluorophenyl)-1-methyl-1H-pyrazol-4-yl)-7-methoxyquinazolin-6-yl)-3-oxabicyclo[3.1.0]hexane-1-carboxamide] |
| 6.2 nM | 5.4 nM | 3.3 nM | COc1cc2ncnc(-c3cn(C)nc3-c3ccccc3)c2cc1NC(=O)N1C[C@H](C)N(C)C[C@@H]1C [Example 178, (2S,5S)—N-(7-methoxy-4-(1-methyl-3-phenyl-1H-pyrazol-4-yl)quinazolin-6-yl)-2,4,5-trimethylpiperazine-1-carboxamide] |
| 4.5 nM | 5.7 nM | 1.7 nM | COc1cc2ncnc(-c3cn(C)nc3-c3ccccc3)c2nc1NC(=O)C1(C(F)(F)F)CCOCC1 [Example 383, N-(7-methoxy-4-(1-methyl-3-phenyl-1H-pyrazol-4-yl)pyrido[3,2-d]pyrimidin-6-yl)-4-(trifluoromethyl)tetrahydro-2H-pyran-4-carboxamide] |
| 1.4 nM | 1.1 nM | 1 nM | COc1cc2ncnc(-c3cn(C)nc3-c3ccccc3)c2nc1OC(C)c1cccnc1F (stereo not drawn) [Example 30, 6-(1-(2-fluoropyridin-3-yl)ethoxy)-7-methoxy-4-(1-methyl-3-phenyl-1H-pyrazol-4-yl)pyrido[3,2-d]pyrimidine] |
| 1.6 nM | 0.4 nM | 1 nM | COc1cc2ncnc(-c3cn(C)nc3-c3ccccc3)c2nc1NC(=O)[C@H]1C[C@H]2C[C@H]2N1C [Example 419, (1R,3R,5R)—N-(7-methoxy-4-(1-methyl-3-phenyl-1H-pyrazol-4-yl)pyrido[3,2-d]pyrimidin-6-yl)-2-methyl-2-azabicyclo[3.1.0]hexane-3-carboxamide] |
| 1.8 nM | 1.1 nM | 1.4 nM | COc1cc2ncnc(-c3cn(C)nc3-c3ccccc3)c2nc1O[C@H](C)c1cccnc1F [Example 48, (R)-6-(1-(2-fluoropyridin-3-yl)ethoxy)-7-methoxy-4-(1-methyl-3-phenyl-1H-pyrazol-4-yl)pyrido[3,2-d]pyrimidine] |
| 2.6 nM | 0.8 nM | 1.2 nM | COc1cc2ncnc(-c3cn(C)nc3-c3ccccc3)c2cc1NC(=O)c1sc(C2CC2)nc1C [Example 354, 2-cyclopropyl-N-(7-methoxy-4-(1-methyl-3-phenyl-1H-pyrazol-4-yl)quinazolin-6-yl)-4-methylthiazole-5-carboxamide] |
| 1.5 nM | 0.7 nM | 0.7 nM | COc1cc2ncnc(-c3cn(CC4CC4)nc3-c3ccccc3)c2nc1NC(=O)[C@@]12C[C@@H]1CN(C)C2 (single isomer, unassigned) [Example 408, (1R,5R)—N-(4-(1-(cyclopropylmethyl)-3-phenyl-1H-pyrazol-4-yl)-7-methoxypyrido[3,2-d]pyrimidin-6-yl)-3-methyl-3-azabicyclo[3.1.0]hexane-1-carboxamide or (1S,5S)—N-(4-(1-(cyclopropylmethyl)-3-phenyl-1H-pyrazol-4-yl)-7-methoxypyrido[3,2-d]pyrimidin-6-yl)-3-methyl-3-azabicyclo[3.1.0]hexane-1-carboxamide] |
| 6.9 nM | 30.6 nM | 5.3 nM | COc1cc2ncnc(-c3cn(C)nc3-c3ccccc3)c2nc1O[C@@H](C)c1nnc(C)s1 (single isomer, unassigned) [Example 51, (S)-2-(1-((7-methoxy-4-(1-methyl-3-phenyl-1H-pyrazol-4-yl)pyrido[3,2-d]pyrimidin-6-yl)oxy)ethyl)-5-methyl-1,3,4-thiadiazole or (R)-2-(1-((7-methoxy-4-(1-methyl-3-phenyl-1H-pyrazol-4-yl)pyrido[3,2-d]pyrimidin-6-yl)oxy)ethyl)-5-methyl-1,3,4-thiadiazole] |
| 1.7 nM | 0.2 nM | 1.4 nM | CCOc1cc2ncnc(-c3cn(C)nc3-c3ccccc3)c2nc1NC1CCOCC1 [Example 158, 7-ethoxy-4-(1-methyl-3-phenyl-1H-pyrazol-4-yl)-N-(tetrahydro-2H-pyran-4-yl)pyrido[3,2-d]pyrimidin-6-amine] |
| 2.8 nM | 1.3 nM | 1.1 nM | COc1cc2ncnc(-c3cn(C)nc3-c3ccc(F)cc3)c2nc1NC(=O)[C@@]12CN(C)C[C@@H]1C2(F)F (single isomer, unassigned) [Example 426, (1S,5R)-6,6-difluoro-N-(4-(3-(4-fluorophenyl)-1-methyl-1H-pyrazol-4-yl)-7-methoxypyrido[3,2-d]pyrimidin-6-yl)-3-methyl-3-azabicyclo[3.1.0]hexane-1-carboxamide or (1R,5S)-6,6-difluoro-N-(4-(3-(4-fluorophenyl)-1-methyl-1H-pyrazol-4-yl)-7-methoxypyrido[3,2-d]pyrimidin-6-yl)-3-methyl-3-azabicyclo[3.1.0]hexane-1-carboxamide] |
| 2.1 nM | 1.4 nM | 0.7 nM | COc1cc2ncnc(-c3cn(C4CC4)nc3-c3ccccc3)c2nc1NC(=O)[C@]12C[C@H]1CN(C)C2 (single isomer, unassigned) [Example 407, (1R,5R)—N-(4-(1-cyclopropyl-3-phenyl-1H-pyrazol-4-yl)-7-methoxypyrido[3,2-d]pyrimidin-6-yl)-3-methyl-3-azabicyclo[3.1.0]hexane-1-carboxamide or (1S,5S)—N-(4-(1-cyclopropyl-3-phenyl-1H-pyrazol-4-yl)-7-methoxypyrido[3,2-d]pyrimidin-6-yl)-3-methyl-3-azabicyclo[3.1.0]hexane-1-carboxamide] |
| 0.8 nM | 0.3 nM | 0.4 nM | Cn1cc(-c2ccc3c(-c4c[nH]nc4-c4ccccc4F)ncnc3c2)cn1 [Example 443, 4-[3-(2-fluorophenyl)-1H-pyrazol-4-yl]-7-(1-methyl-1H-pyrazol-4-yl)quinazoline] |
| 8 nM | 4.6 nM | 1 nM | COc1cc2ncnc(-c3cn(C)nc3-c3ccccc3)c2nc1NC(=O)C1(OC)CC1 [Example 436, 1-methoxy-N-(7-methoxy-4-(1-methyl-3-phenyl-1H-pyrazol-4-yl)pyrido[3,2-d]pyrimidin-6-yl)cyclopropane-1-carboxamide] |
| 4.3 nM | 3.6 nM | 1.4 nM | COc1cc2ncnc(-c3cn(C)nc3-c3ccccc3F)c2nc1NC(=O)[C@]12C[C@H]1CN(C)C2 [Example 374, (1R,5R)—N-(4-(3-(2-fluorophenyl)-1-methyl-1H-pyrazol-4-yl)-7-methoxypyrido[3,2-d]pyrimidin-6-yl)-3-methyl-3-azabicyclo[3.1.0]hexane-1-carboxamide] |
| 2 nM | 1.3 nM | 1.6 nM | COc1cc2ncnc(-c3cn(CC(F)F)nc3-c3ccccc3)c2cc1NC(=O)[C@@]12COC[C@@H]1C2 [Example 276, (1R,5R)—N-(4-(1-(2,2-difluoroethyl)-3-phenyl-1H-pyrazol-4-yl)-7-methoxyquinazolin-6-yl)-3-oxabicyclo[3.1.0]hexane-1-carboxamide] |
| 2.5 nM | 1.4 nM | 0.7 nM | CCOc1cc2ncnc(-c3cn(C)nc3-c3ccccc3)c2nc1NC(=O)[C@@]12COC[C@@H]1C2 (single isomer, unassigned) [Example 380, (1R,5R)—N-(7-ethoxy-4-(1-methyl-3-phenyl-1H-pyrazol-4-yl)pyrido[3,2-d]pyrimidin-6-yl)-3-oxabicyclo[3.1.0]hexane-1-carboxamide or (1S,5S)—N-(7-ethoxy-4-(1-methyl-3-phenyl-1H-pyrazol-4-yl)pyrido[3,2-d]pyrimidin-6-yl)-3-oxabicyclo[3.1.0]hexane-1-carboxamide] |
| 6.1 nM | 5.2 nM | 2.2 nM | COc1cc2ncnc(-c3cn(C)nc3-c3ccccc3)c2cc1OC(=O)N1CCOCC1(C)C [Example 81, 7-methoxy-4-(1-methyl-3-phenyl-1H-pyrazol-4-yl)quinazolin-6-yl 3,3-dimethylmorpholine-4-carboxylate] |
| 1.9 nM | 0.8 nM | 0.9 nM | COc1cc2ncnc(-c3cn(CC(F)F)nc3-c3ccccc3)c2cc1OCCCN1CCOCC1 [Example 23, 4-(3-((4-(1-(2,2-difluoroethyl)-3-phenyl-1H-pyrazol-4-yl)-7-methoxyquinazolin-6-yl)oxy)propyl)morpholine] |
| 3.9 nM | 6 nM | 2.4 nM | C[C@@H](O)c1cc2c(-c3cn(CC(F)F)nc3-c3ccccc3)ncnc2cc1O[C@H]1CCOC1 (single isomer, unassigned) [Example 118, (R)-1-(4-(1-(2,2-difluoroethyl)-3-phenyl-1H-pyrazol-4-yl)-7-(((S)-tetrahydrofuran-3-yl)oxy)quinazolin-6-yl)ethan-1-ol or (S)-1-(4-(1-(2,2-difluoroethyl)-3-phenyl-1H-pyrazol-4-yl)-7-(((S)-tetrahydrofuran-3-yl)oxy)quinazolin-6-yl)ethan-1-ol] |
